Measured values reported in ChEMBL document CHEMBL1133136, “A high-throughput screening utilizing intramolecular fluorescence resonance energy transfer for the discovery of the molecules that bind HIV-1 TAR RNA specifically” (Bioorg Med Chem Lett, 2000).
Residues, ends and D or L forms follow the SMILES beside them.

What follows are compounds tested against Nucleic Acid (assay: Dissociation constant with HIV-1 trans activation responsive element of mRNA was determined). Details: not given.
Assay type: nucleic-acid assay, Human immunodeficiency virus 1

Kd | SMILES
No binding | C[C@H](N)C(=O)N[C@@H](C)C(=O)N[C@@H](C)C(=O)N[C@@H](C)C(=O)N[C@@H](C)C(=O)N[C@@H](CCCN=C(N)N)C(=O)N[C@@H](CCCN=C(N)N)C(=O)N[C@@H](C)C(=O)N[C@@H](CCCN=C(N)N)C(=O)N[C@@H](C)C(=O)N[C@@H](C)C(=O)N[C@@H](C)C(=O)N[C@@H](C)C(=O)N[C@@H](C)C(=O)N[C@@H](C)C(=O)N[C@@H](C)C(=O)O (H-AAAAARRARAAAAAAA-OH)
No binding | C[C@H](N)C(=O)N[C@@H](C)C(=O)N[C@@H](C)C(=O)N[C@@H](C)C(=O)N[C@@H](C)C(=O)N[C@@H](CCCN=C(N)N)C(=O)N[C@@H](CCCN=C(N)N)C(=O)N[C@@H](C)C(=O)N[C@@H](CCCN=C(N)N)C(=O)N[C@@H](CCCN=C(N)N)C(=O)N[C@@H](C)C(=O)N[C@@H](C)C(=O)N[C@@H](C)C(=O)N[C@@H](C)C(=O)N[C@@H](C)C(=O)N[C@@H](C)C(=O)O (H-AAAAARRARRAAAAAA-OH)

Same assay, conditions: read-out: Kd

Kd [nM] | SMILES
70 | C[C@H](N)C(=O)N[C@@H](C)C(=O)N[C@@H](C)C(=O)N[C@@H](CCCN=C(N)N)C(=O)N[C@@H](CCCCN)C(=O)N[C@@H](CCCCN)C(=O)N[C@@H](CCCN=C(N)N)C(=O)N[C@@H](CCCN=C(N)N)C(=O)N[C@@H](CCC(N)=O)C(=O)N[C@@H](CCCN=C(N)N)C(=O)N[C@@H](CCCN=C(N)N)C(=O)N[C@@H](CCCN=C(N)N)C(=O)N[C@@H](C)C(=O)N[C@@H](C)C(=O)N[C@@H](C)C(=O)O (H-AAARKKRRQRRRAAA-OH)
2900 | C[C@H](N)C(=O)N[C@@H](C)C(=O)N[C@@H](C)C(=O)N[C@@H](CCCN=C(N)N)C(=O)N[C@@H](C)C(=O)N[C@@H](C)C(=O)N[C@@H](CCCN=C(N)N)C(=O)N[C@@H](CCCN=C(N)N)C(=O)N[C@@H](C)C(=O)N[C@@H](CCCN=C(N)N)C(=O)N[C@@H](CCCN=C(N)N)C(=O)N[C@@H](CCCN=C(N)N)C(=O)N[C@@H](C)C(=O)N[C@@H](C)C(=O)N[C@@H](C)C(=O)O (H-AAARAARRARRRAAA-OH)
170 | C[C@H](N)C(=O)N[C@@H](C)C(=O)N[C@@H](C)C(=O)N[C@@H](C)C(=O)N[C@@H](CCCCN)C(=O)N[C@@H](CCCCN)C(=O)N[C@@H](CCCN=C(N)N)C(=O)N[C@@H](CCCN=C(N)N)C(=O)N[C@@H](C)C(=O)N[C@@H](CCCN=C(N)N)C(=O)N[C@@H](CCCN=C(N)N)C(=O)N[C@@H](CCCN=C(N)N)C(=O)N[C@@H](C)C(=O)N[C@@H](C)C(=O)N[C@@H](C)C(=O)O (H-AAAAKKRRARRRAAA-OH)
18000 | C[C@H](N)C(=O)N[C@@H](C)C(=O)N[C@@H](C)C(=O)N[C@@H](C)C(=O)N[C@@H](C)C(=O)N[C@@H](CCCN=C(N)N)C(=O)N[C@@H](CCCN=C(N)N)C(=O)N[C@@H](C)C(=O)N[C@@H](CCCN=C(N)N)C(=O)N[C@@H](CCCN=C(N)N)C(=O)N[C@@H](CCCN=C(N)N)C(=O)N[C@@H](C)C(=O)N[C@@H](C)C(=O)N[C@@H](C)C(=O)N[C@@H](C)C(=O)N[C@@H](C)C(=O)O (H-AAAAARRARRRAAAAA-OH)
80 | C[C@H](N)C(=O)N[C@@H](C)C(=O)N[C@@H](C)C(=O)N[C@@H](CCCN=C(N)N)C(=O)N[C@@H](CCCCN)C(=O)N[C@@H](CCCCN)C(=O)N[C@@H](CCCN=C(N)N)C(=O)N[C@@H](CCCN=C(N)N)C(=O)N[C@@H](C)C(=O)N[C@@H](CCCN=C(N)N)C(=O)N[C@@H](CCCN=C(N)N)C(=O)N[C@@H](CCCN=C(N)N)C(=O)N[C@@H](C)C(=O)N[C@@H](C)C(=O)N[C@@H](C)C(=O)O (H-AAARKKRRARRRAAA-OH)
66000 | C[C@H](N)C(=O)N[C@@H](C)C(=O)N[C@@H](C)C(=O)N[C@@H](C)C(=O)N[C@@H](C)C(=O)N[C@@H](CCCN=C(N)N)C(=O)N[C@@H](CCCN=C(N)N)C(=O)N[C@@H](CCCN=C(N)N)C(=O)N[C@@H](CCCN=C(N)N)C(=O)N[C@@H](CCCN=C(N)N)C(=O)N[C@@H](C)C(=O)N[C@@H](C)C(=O)N[C@@H](C)C(=O)N[C@@H](C)C(=O)N[C@@H](C)C(=O)N[C@@H](C)C(=O)O (H-AAAAARRRRRAAAAAA-OH)
